These are literature values, as cited in PubChem BioAssay AID1259409 (Chemical Carcinogenesis Research Information System (CCRIS), 2018).

For this series, the system named is rodent chemically induced tumor inhibition, incidence and multiplicity. In words: CCRIS tumor inhibitor studies. Particulars: Carcinogen: DIETHYLNITROSAMINE, 55-18-5, N-METHYL-N-NITROSOUREA, 684-93-5, N-BUTYL-N-(4-HYDROXYBUTYL)NITROSAMINE, 3817-11-6, 1,2-DIM, Carcinogen: DIETHYLNITROSAMINE, 55-18-5, N-METHYL-N-NITROSOUREA, 684-93-5, N-BUTYL-N-(4-HYDROXYBUTYL)NITROSAMINE, 3817-11-6, 1,2-DIM, Dose [Inhibitor]: 0, 0.3% IN DIET FOR 23 WK BEGINNING 1 WK POST CARCINOGEN TREATMENT (STUDY DURATION: 28 WK), Route [Inhibitor]: ORAL, Species: RAT, Strain/Sex: F344/MALE, Dose [Carcinogen]: 100 MG/KG BW DEN ONCE, 20 MG/KG BW MNU ONCE ON DAYS 6,9, AND 12, 0.05% BBN IN DRINKING WATER FOR FIRST TWO WK, 40 MG/KG, Dose [Carcinogen]: 100 MG/KG BW DEN ONCE, 20 MG/KG BW MNU ONCE ON DAYS 6,9, AND 12, 0.05% BBN IN DRINKING WATER FOR FIRST TWO WK, 40 MG/KG, Promoter: NONE USED.

For the compound `C[C@]12CC[C@H](O)CC1=CC[C@@H]1[C@@H]2CC[C@]2(C)C(=O)CC[C@@H]12`, the “tumour outcome (control, treated, inhibition, significance)” value reads like this: (Target Tissue: Type of Lesion: LIVER: HEPATOCELLULAR ADENOMA, HYPERPLASTIC NODULES) 2/20 (10%), 15/20 (75%), -650%, p<0.01; (Target Tissue: Type of Lesion: LUNG: ADENOCARCINOMA) 1/20 (5%), 0/20 (0%), 100%, not significant; (Target Tissue: Type of Lesion: LUNG: ADENOMA) 8/20 (40%), 5/20 (25%), 38%, not significant; (Target Tissue: Type of Lesion: SMALL INTESTINE: ADENOMA) 5/20 (25%), 2/20 (10%), 60%, not significant; (Target Tissue: Type of Lesion: THYROID: FOLLICULAR ADENOMA) 6/20 (30%), 1/20 (5%), 83%, p<0.05; (Target Tissue: Type of Lesion: THYROID: FOLLICULAR CARCINOMA) 1/20 (5%), 2/20 (10%), -100%, not significant. The outcome (Target Tissue: Type of Lesion: SMALL INTESTINE: ADENOCARCINOMA) is 2/20 (10%), 0/20 (o%), 100%, not significant.
